In brackets after ≈: the same amount, converted by molar mass. Like-named read-outs stand apart in the source and are kept apart here.
Key:
Format in all cases: physicochemical
[1] = HPLC chemical stability after storage at various conditions; settings: for Area Percent at 248 nm T1 week: 1 week; for Area Percent at 248 nm T2 week: 2 weeks; for Area Percent at 248 nm T4 week: 4 weeks; for Area Percent at 248 nm T8 week: 8 weeks; for change in HPLC area percent purity (LCAP): selected storage conditions, time points over eight-week study
Protocol: High-performance Liquid Chromatography (HPLC) analysis was performed to determine the chemical stability of Forms A, B, and C of Compound A after storage at various conditions, using an Agilent 1100 system with DAD. Chemical stability was estimated by measuring and comparing the area percent of the material peak at various time points. For High-performance Liquid Chromatography (HPLC) analysis, an Agilent 1100 system with DAD was used.

[2] = XRPD physical form stability under storage conditions; settings: up to eight weeks
Protocol: (§1) XRPD analysis is carried out using a diffractometer running in reflection mode. The 2-theta position is calibrated against a standard before running the experiment. XRPD analysis was carried out on a Panalytical X'Pert^3 Powder XRPD on a Si zero-background holder, scanning the samples between 3 and 40° 2-theta. The 2-theta position was calibrated against Panalytical 640 Si powder standard. The test material was gently compressed on a glass disc inserted into a sample holder. The sample was then loaded into a Panalytical X'Pert^3 Powder XRPD diffractometer running in reflection mode and analyzed, using the following experimental conditions.

[3] = Dynamic Vapor Sorption (DVS); settings: for XRPD pattern after exposure to DVS experiment: 25° C. and RH up to 95%; for water uptake: between 0 and 80% RH at between 25° C. and 45° C.
Protocol: Dynamic Vapor Sorption (DVS) was measured using a SMS (Surface Measurement Systems) DVS Intrinsic. The test was performed at 25° C. while the RH was varied from 0% to 95% at 10% increments in the range of 0% RH-90% RH and at 5% increment up to 95% RH. The change in mass after each increase or decrease in the RH was recorded as a percentage of the original mass of the starting material. Dynamic Vapor Sorption (DVS) was measured using a SMS (Surface Measurement Systems) DVS Intrinsic, using the following parameters: [table]

Solubility estimation = assay: Solubility estimation
Protocol: Solubility of the solid forms of the present application in a variety of solvents is measured. Solvent is added to a sample until the total volume reaches 100 μL, followed by 100 μL per step until the sample is dissolved or the concentration is less than <1.0 mg/mL. The approximate solubility is then calculated.
Solubility of the solid forms of the present application in a variety of solvents was measured according to the following procedures. A sample (˜2 mg) was weighed into a 4-mL glass vial. Solvent was added into the vial stepwise at 50 μL per step until the total volume was 100 μL, followed by 100 μL per step until concentration was less than 1.0 mg/mL. The solutions were mixed thoroughly after each addition by sonication for 2 minutes and vortexing for 1 minute. The addition of solvent was complete if the sample was dissolved or the concentration was <1.0 mg/mL. The volumes of solvent (V1 and V2) were recorded, and approximate solubility was calculated.

[4] = XRPD after air-drying or vacuum drying
Protocol: as §1, with “XRPD” for “XRPD analysis is carried out using a diffractometer running in reflection mode. The 2-theta position is calibrated against a standard before running the experiment. XRPD”

## O=C(Cc1ccc(-c2ccc(OCCN3CCOCC3)cc2)cn1)NCc1ccccc1 [Form B, 2-(5-(4-(2-morpholinoethoxy)phenyl)pyridin-2-yl)-N-benzylacetamide]
[1]; 25° C./60% RH
  Area Percent at 248 nm T1 week: 99.8 Area Percent
  Area Percent at 248 nm T2 week: 99.7 Area Percent
  Area Percent at 248 nm T4 week: 99.8 Area Percent
  Area Percent at 248 nm T8 week: 99.8 Area Percent
  Area Percent at 248 nm T0: 99.8 Area Percent
[1]; 40° C./75% RH
  Area Percent at 248 nm T1 week: 99.8 Area Percent
  Area Percent at 248 nm T2 week: 99.8 Area Percent
  Area Percent at 248 nm T4 week: 99.7 Area Percent
  Area Percent at 248 nm T8 week: 99.8 Area Percent
  Area Percent at 248 nm T0: 99.8 Area Percent
[1]; 55° C./75% RH
  Area Percent at 248 nm T1 week: 99.8 Area Percent
  Area Percent at 248 nm T2 week: 99.7 Area Percent
  Area Percent at 248 nm T4 week: 99.7 Area Percent
  Area Percent at 248 nm T8 week: 99.7 Area Percent
  Area Percent at 248 nm T0: 99.8 Area Percent
[1]; Ambient
  Area Percent at 248 nm T1 week: 99.8 Area Percent
  Area Percent at 248 nm T2 week: 99.7 Area Percent
  Area Percent at 248 nm T4 week: 99.8 Area Percent
  Area Percent at 248 nm T8 week: 99.8 Area Percent
  Area Percent at 248 nm T0: 99.8 Area Percent
[1]
  change in HPLC area percent purity (LCAP): no significant decrease
[2]; 25° C./60% RH
  change in physical form (XRPD): no change in physical form
[2]; 40° C./75% RH
  change in physical form (XRPD): no change in physical form
[2]; 55° C./75% RH
  change in physical form (XRPD): no change in physical form
[2]; ambient conditions
  change in physical form (XRPD): no change in physical form
[3]
  hygroscopicity: non-hygroscopic
  XRPD pattern after exposure to DVS experiment: does not change
  water uptake: less than 0.2 % w/w
Solubility estimation; aqueous
  thermodynamic aqueous solubility: below 1.5 mg/ml
Solubility estimation; aqueous solution (e.g., water), room temperature
  aqueous solubility (dissolved completely): > 20000 µg/mL

## O=C(Cc1ccc(-c2ccc(OCCN3CCOCC3)cc2)cn1)NCc1ccccc1 [Form A, 2-(5-(4-(2-morpholinoethoxy)phenyl)pyridin-2-yl)-N-benzylacetamide]
[1]; 25° C./60% RH
  Area Percent at 248 nm T1 week: 99.8 Area Percent
  Area Percent at 248 nm T2 week: 99.8 Area Percent
  Area Percent at 248 nm T4 week: 99.8 Area Percent
  Area Percent at 248 nm T8 week: 99.8 Area Percent
  Area Percent at 248 nm T0: 99.8 Area Percent
[1]; 40° C./75% RH
  Area Percent at 248 nm T1 week: 99.8 Area Percent
  Area Percent at 248 nm T2 week: 99.8 Area Percent
  Area Percent at 248 nm T4 week: 99.8 Area Percent
  Area Percent at 248 nm T8 week: 99.8 Area Percent
  Area Percent at 248 nm T0: 99.8 Area Percent
[1]; 55° C./75% RH
  Area Percent at 248 nm T1 week: 99.8 Area Percent
  Area Percent at 248 nm T2 week: 99.8 Area Percent
  Area Percent at 248 nm T4 week: 99.7 Area Percent
  Area Percent at 248 nm T8 week: 99.8 Area Percent
  Area Percent at 248 nm T0: 99.8 Area Percent
[1]; Ambient
  Area Percent at 248 nm T1 week: 99.8 Area Percent
  Area Percent at 248 nm T2 week: 99.7 Area Percent
  Area Percent at 248 nm T4 week: 99.7 Area Percent
  Area Percent at 248 nm T8 week: 99.7 Area Percent
  Area Percent at 248 nm T0: 99.8 Area Percent
[1]
  change in HPLC area percent purity (LCAP): no significant decrease
[2]; 25° C./60% RH
  change in physical form (XRPD): no change in physical form
[2]; 40° C./75% RH
  change in physical form (XRPD): no change in physical form
[2]; 55° C./75% RH
  change in physical form (XRPD): no change in physical form
[2]; ambient conditions
  change in physical form (XRPD): no change in physical form
[3]
  hygroscopicity: non-hygroscopic
  XRPD pattern after exposure to DVS experiment: does not change
  water uptake: less than 0.2 % w/w
Solubility estimation; aqueous, thermodynamic from solid
  solubility thermodynamic: < 1500 µg/mL
Solubility estimation; water, thermodynamic from solid, aqueous solution (e.g., water), room temperature, read-out: aqueous solubility (dissolved completely)
  solubility: > 20000 µg/mL
[4]
  crystallinity after drying (XRPD): no loss of crystallinity

## O=C(Cc1ccc(-c2ccc(OCCN3CCOCC3)cc2)cn1)NCc1ccccc1 [Form C, 2-(5-(4-(2-morpholinoethoxy)phenyl)pyridin-2-yl)-N-benzylacetamide]
[1]; 25° C./60% RH
  Area Percent at 248 nm T1 week: 99.9 Area Percent
  Area Percent at 248 nm T2 week: 99.9 Area Percent
  Area Percent at 248 nm T4 week: 99.8 Area Percent
  Area Percent at 248 nm T8 week: 99.9 Area Percent
  Area Percent at 248 nm T0: 99.8 Area Percent
[1]; 40° C./75% RH
  Area Percent at 248 nm T1 week: 99.8 Area Percent
  Area Percent at 248 nm T2 week: 99.8 Area Percent
  Area Percent at 248 nm T4 week: 99.9 Area Percent
  Area Percent at 248 nm T8 week: 99.9 Area Percent
  Area Percent at 248 nm T0: 99.8 Area Percent
[1]; 55° C./75% RH
  Area Percent at 248 nm T1 week: 99.9 Area Percent
  Area Percent at 248 nm T2 week: 99.8 Area Percent
  Area Percent at 248 nm T4 week: 99.8 Area Percent
  Area Percent at 248 nm T8 week: 99.9 Area Percent
  Area Percent at 248 nm T0: 99.8 Area Percent
[1]; Ambient
  Area Percent at 248 nm T1 week: 99.8 Area Percent
  Area Percent at 248 nm T2 week: 99.8 Area Percent
  Area Percent at 248 nm T4 week: 99.8 Area Percent
  Area Percent at 248 nm T8 week: 99.9 Area Percent
  Area Percent at 248 nm T0: 99.8 Area Percent
[1]
  change in HPLC area percent purity (LCAP): no significant decrease
[2]; 25° C./60% RH
  change in physical form (XRPD): no change in physical form
[2]; 40° C./75% RH
  change in physical form (XRPD): no change in physical form
[2]; 55° C./75% RH
  change in physical form (XRPD): no change in physical form
[2]; ambient conditions
  change in physical form (XRPD): no change in physical form
[3]
  hygroscopicity: non-hygroscopic
  XRPD pattern after exposure to DVS experiment: does not change
  water uptake: less than 0.2 % w/w
Solubility estimation; 1,4-Dioxane, organic solvent or mixture, thermodynamic from solid, 1,4-Dioxane, read-out: Solubility
  solubility: 12600 to 25100 µg/mL (≈ 29.2 to 58.2 mM)
Solubility estimation; 2-MeTHF, organic solvent or mixture, thermodynamic from solid, 2-MeTHF, read-out: Solubility
  solubility: 5100 to 6380 µg/mL (≈ 11.8 to 14.8 mM)
Solubility estimation; ACN, organic solvent or mixture, thermodynamic from solid, ACN, read-out: Solubility
  solubility: 4430 to 5540 µg/mL (≈ 10.3 to 12.8 mM)
Solubility estimation; Acetone, organic solvent or mixture, thermodynamic from solid, Acetone, read-out: Solubility
  solubility: 5690 to 8590 µg/mL (≈ 13.2 to 19.9 mM)
Solubility estimation; CHCl3, organic solvent or mixture, thermodynamic from solid, CHCl3, read-out: Solubility
  solubility: 25900 to 51800 µg/mL (≈ 60 to 120 mM)
Solubility estimation; DCM, organic solvent or mixture, thermodynamic from solid, DCM, read-out: Solubility
  solubility: 1330 to 1440 µg/mL (≈ 3.08 to 3.34 mM)
Solubility estimation; EtOAc, organic solvent or mixture, thermodynamic from solid, EtOAc, read-out: Solubility
  solubility: 2370 to 2630 µg/mL (≈ 5.49 to 6.09 mM)
Solubility estimation; EtOH, organic solvent or mixture, thermodynamic from solid, EtOH, read-out: Solubility
  solubility: 5140 to 6420 µg/mL (≈ 11.9 to 14.9 mM)
Solubility estimation; H2O, water, thermodynamic from solid, H2O, read-out: Solubility
  solubility: < 1000 µg/mL
Solubility estimation; IPA, organic solvent or mixture, thermodynamic from solid, IPA, read-out: Solubility
  solubility: 1300 to 1390 µg/mL (≈ 3.01 to 3.22 mM)
Solubility estimation; IPAc, organic solvent or mixture, thermodynamic from solid, IPAc, read-out: Solubility
  solubility: 1080 to 1150 µg/mL (≈ 2.5 to 2.66 mM)
Solubility estimation; MIBK, organic solvent or mixture, thermodynamic from solid, MIBK, read-out: Solubility
  solubility: 1610 to 1760 µg/mL (≈ 3.73 to 4.08 mM)
Solubility estimation; MTBE, heated to 50° C.
  solubility: soluble
Solubility estimation; MTBE, organic solvent or mixture, thermodynamic from solid, MTBE, read-out: Solubility
  solubility: < 1000 µg/mL
Solubility estimation; MTBE, room temperature
  solubility: insoluble
Solubility estimation; MeOH, organic solvent or mixture, thermodynamic from solid, MeOH, read-out: Solubility
  solubility: 9580 to 19200 µg/mL (≈ 22.2 to 44.4 mM)
Solubility estimation; THF, organic solvent or mixture, thermodynamic from solid, THF, read-out: Solubility
  solubility: 11000 to 22000 µg/mL (≈ 25.5 to 51 mM)
Solubility estimation; n-Heptane, organic solvent or mixture, thermodynamic from solid, n-Heptane, read-out: Solubility
  solubility: < 1000 µg/mL
Solubility estimation; n-heptane, organic solvent or mixture, thermodynamic from solid, n-heptane, room temperature and when heated to 50° C., read-out: Solubility
  solubility: < 1000 µg/mL
Solubility estimation; organic solvent or mixture, thermodynamic from solid, methanol, ethanol, isopropanol, acetone, MIBK, ethyl acetate, isopropyl acetate, tetrahydrofuran, 2-Me-THF, 1,4-dioxane, acetonitrile, dichloromethane, chloroform, toluene, room temperature and 50° C., read-out: Solubility
  solubility: > 1000 µg/mL
Solubility estimation; toluene, organic solvent or mixture, thermodynamic from solid, toluene, read-out: Solubility
  solubility: 1510 to 1610 µg/mL (≈ 3.5 to 3.73 mM)
Solubility estimation; water, thermodynamic from solid, aqueous solution (water), room temperature and when heated to 50° C., read-out: Solubility
  solubility: < 1000 µg/mL

Reference: patent US11230527B2, “Solid forms of 2-(5-(4-(2-morpholinoethoxy)phenyl)pyridin-2-yl)-n- benzylacetamide” (Athenex HK Innovative Limited, priority 2017, dated 2022)
